Converted amounts (≈) assume the structure as drawn. “And” between values parts separate entries of the source, which are not always exact repeats. Equal values may be shown once.
Legend:
[1] = tested on: HBV; assay: HBV DNA production and replication in 2.2.15 cell cultures; format: cell-based, Hepatitis B virus (HBV); details: for INTRACELLULAR HBV DNA INTEG. / INTRACELLULAR HBV DNA MONO. / INTRACELLULAR HBV DNA RI: 24 hours following 10th day of treatment; for HBV DNA IN CULTURE MEDIUM DAY 0: day 0 of treatment
Experimental: 2'-CdG was tested at three concentrations (50 ng/ml, 500 ng/ml, and 5 ug/ml) against the HBV-producing, human liver cell line, 2.2.15 (Sells et al., J. Virol. 62:2836, 1989). A racemic (D,L) preparation, as well as the purified D and L isomers were tested. For these analyses compounds were tested in duplicate at all concentrations. Ara-AMP and ddG (2'3'-dideoxyguanosine) were used as HBV inhibitory control compounds. […] The nucleoside analog, ddG was used as an additional control compound since ddG has activity against duck hepatitis B virus in chronically infected Peking ducks (Lee et al., Antimicrob. Agents Chemother. 33:336, 1989) and 2'-CdG is also a deoxyguanosine analog.
2.2.15 cells were seeded in 6 well culture plates and grown to confluence over a 10 day period in medium with 5% FBS. Test compounds were then added daily for a continuous 10 day period in medium with 1% dialyzed FBS. […] Compounds were tested, in duplicate cultures, at 3 concentrations covering a 100-fold range. Culture medium (changed daily during the treatment period) was collected and stored for analysis of extracellular (virion) HBV DNA from days 0, 3, 6, and 10 of the treatment period. This allowed for an analysis of the level of HBV virion production during discrete 24 hour intervals and reduced the potential for the buildup of toxic metabolites derived from the test compounds. Treated cells were lysed following the 10th day of treatment for the analysis of intracellular HBV genomic forms. HBV DNA was analyzed in a quantitative manner for (i) overall levels (both extracellular and intracellular DNA) and (ii) the relative rate of HBV replication (intracellular DNA only).
HBV DNA levels were measured by comparison to known amounts of HBV DNA standards applied to every nitrocellulose filter (gel or slot blot) using an AMBIS Beta Scanner. Standard curves, generated by multiple analyses, were used to correlate CPM measurements with relative levels of target HBV DNA. The levels of HBV DNA in each of three classes of intracellular viral genomic forms were individually quantitated: integrated HBV DNA, episomal monomeric genomes and HBV DNA replication intermediates (RI). Integrated HBV DNA was used to normalize the relative amounts of DNA in each lane because the levels of this class of HBV DNA would be expected to remain constant on a per cell basis. The levels of the monomeric HBV genomes and RI were used as an indicator of the relative level of HBV replication.

[2] = biological target: T1, HSV-TK extract (Human herpesvirus 1, UniProt P0DTH5); assay: Phosphorylated products formed by HSV-TK extract, SAX HPLC; format: biochemical, HSV-1
T1 construct: HSV thymidine kinase (HSV TK) was isolated from HELA (BU25) cells infected with the SW148 strain of HSV-1; made in house; host or cells: HeLa (BU25) thymidine-kinase-deficient cells infected with HSV-1 strain S148/SW148
Experimental: HSV thymidine kinase activity was measured in 200 µl volumes containing HSV-TK extract obtained as described previously (Belzarini et al., supra), 5.0 mM ATP, 5 mM MgCl2, 9 mM potassium fluoride, 11.2 µg phosphoenol pyruvate, 5 µg of pyruvate kinase, 10 mM β-mercaptoethanol and either 50 µM [3H]-D-, L, or no drug for 60 minutes at 37°C. The reaction was stopped with perchloric acid (PCA), neutralized with potassium bicarbonate, and the reaction products were analyzed by SAX HPLC. The UV absorption spectra of selected peaks were determined with a rapid spectral detector (LKB, Gaithersburg, MD). […] The amount of monophosphate derived from L-2'CdG was about the same as the amount of triphosphate derived from D-2'CdG, and confirmed the results of the disk assay.
HSV extracts were also incubated with 10 µM of either [^3H]-D- or L-2'Cdg, as described above, to measure the metabolism of these entantiomers. After 2 hours the reaction was stopped with perchloric acid (PCA), neutralized with potassium bicarbonate, and the acid-soluble metabolites were separated using SAX HPLC as described above. The results are summarized below.: TABLE 3

[3] = biological target: T2, HSV-1 TK (Human herpesvirus 1, UniProt P0DTH5); assay: Competitive inhibition of [3H]-thymidine phosphorylation by partially purified HSV-1 TK; format: biochemical
T2 construct: HSV thymidine kinase (HSV TK) was isolated from HELA (BU25) cells infected with the SW148 strain of HSV-1; made in house; host or cells: HeLa (BU25) thymidine-kinase-deficient cells infected with HSV-1 strain S148/SW148
Experimental: The Ki's were determined from a plot of the slope of each line versus the concentration of the competitor (D-, L, or D,L-2'CdG) and are summarized below: TABLE 2

[4] = tested on: HSV-1 (strain 377, TK+); assay: Antiviral activity against HSV-1; format: cell-based
Experimental: (§1) D-2'-CdG and L-2'-CdG were tested, alongside D,L-2'-CdG, against both HSV-1 (strain 377, TK+; obtained from Dr. Earl Kern, University of Alabama) and HSV-2 (strain MS, TK+; also obtained from Dr. Earl Kern). In these tests (Table 5), Ara-A and acyclovir (ACV) were the positive control drugs. In four tests vs. HSV-1, the antiviral activity (VR) and potency (MIC50) of D-2'-CdG were approximately the same as those of racemic 2-CdG. L-2'-CdG was only modestly active.

[5] = tested on: HSV-2 (strain MS, TK+); assay: Antiviral activity against HSV-2; format: cell-based; details: HSV-2
Experimental: as §1
These compounds were tested against HSV-2(TK^+). The VR of ACV was somewhat higher than the VR values of D-2'-CdG and D,L-2'-CdG, but the values of MIC50 of the two forms of 2'-CdG were lower. In addition, experiments comparing the antiviral activity D-2'-CdG with acyclovir against HSV-1 in human foreskin fibroblasts have shown an even greater potency, in favor of D-2'-CdG.

T1 sequence (P0DTH5 whole entry): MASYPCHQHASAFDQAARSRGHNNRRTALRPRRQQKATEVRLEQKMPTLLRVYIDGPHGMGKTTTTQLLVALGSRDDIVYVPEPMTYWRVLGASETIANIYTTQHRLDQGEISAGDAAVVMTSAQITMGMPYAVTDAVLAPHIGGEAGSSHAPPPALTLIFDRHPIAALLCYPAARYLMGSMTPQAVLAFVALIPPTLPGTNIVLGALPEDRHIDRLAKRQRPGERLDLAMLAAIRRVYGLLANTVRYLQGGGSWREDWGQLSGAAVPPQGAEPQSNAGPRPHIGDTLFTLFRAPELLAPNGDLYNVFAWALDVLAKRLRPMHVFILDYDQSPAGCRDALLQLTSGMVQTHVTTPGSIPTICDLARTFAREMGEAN
T2 sequence (P0DTH5 whole entry): as above

## Nc1nc2c(ncn2[C@@H]2C[C@H](CO)[C@@H](O)C2)c(=O)[nH]1 [D-2'-CdG, [1R,3S,4R-(1α,3β,4α)]-D-2-Amino-1,9-dihydro-9-[3-hydroxy-4-(hydroxymethyl)cyclopentyl]-6H-purin-6-one]
[1]; 50 ng/ml to 5 ug/ml, 2.2.15 cells
  anti-HBV activity (in words): as active an inhibitor of HBV replication as the racemic mixture
[1]; 50ng/ml, listed as D, 2CdG
  INTRACELLULAR HBV DNA INTEG.: 1.6 PG/UG CELL DNA and 1.3 PG/UG CELL DNA
  INTRACELLULAR HBV DNA MONO.: 1.3 PG/UG CELL DNA and 2.1 PG/UG CELL DNA
  INTRACELLULAR HBV DNA RI: 16 PG/UG CELL DNA and 20 PG/UG CELL DNA
  HBV DNA IN CULTURE MEDIUM DAY 0: 100 pg/mL and 77 pg/mL
  HBV DNA IN CULTURE MEDIUM DAY 3: 110 pg/mL and 70 pg/mL
  HBV DNA IN CULTURE MEDIUM DAY 6: 38 pg/mL and 40 pg/mL
[1]; 500ng/ml
  INTRACELLULAR HBV DNA RI: 1 PG/UG CELL DNA
[1]; 500ng/ml, listed as D, 2-CdG
  INTRACELLULAR HBV DNA INTEG.: 1.0 PG/UG CELL DNA and 1.6 PG/UG CELL DNA
  INTRACELLULAR HBV DNA MONO.: 1.9 PG/UG CELL DNA and 1.8 PG/UG CELL DNA
  HBV DNA IN CULTURE MEDIUM DAY 0: 80 pg/mL and 90 pg/mL
  HBV DNA IN CULTURE MEDIUM DAY 3: 36 pg/mL and 43 pg/mL
  HBV DNA IN CULTURE MEDIUM DAY 6: 15 pg/mL and 14 pg/mL
[1]; 5 ug/ml
  INTRACELLULAR HBV DNA MONO.: 2.0 PG/UG CELL DNA
[1]; 5 ug/ml, listed as D, 2-CdG
  HBV DNA IN CULTURE MEDIUM DAY 0: 100 pg/mL and 120 pg/mL
  HBV DNA IN CULTURE MEDIUM DAY 3: 18 pg/mL and 21 pg/mL
  HBV DNA IN CULTURE MEDIUM DAY 6: 3 pg/mL and 6 pg/mL
[1]; 5 ug/ml, day 10
  HBV DNA IN CULTURE MEDIUM DAY 10: 0 pg/mL
[2]; 10 µM [3H] compound, 2 hours
  DPM di: 2427 DPM
  DPM mono: 2138 DPM
  DPM nucleoside: 38555 DPM
  DPM total: 128000 DPM
  DPM tri: 85073 DPM
[2]; 50 µM, 60 minutes at 37°C, Fig. 3
  major phosphorylated derivative: the triphosphate
[3]
  Ki: 2.1 µM
[4]; HSV-1, range of tests
  VR: 4.8-6.3
[4]; Human alphaherpesvirus 1, HSV-1, range of tests, read-out: Mic50
  EC50: 0.1 to 0.3 µg/mL (≈ 0.377 to 1.13 µM)
[4]; more potent than ACV
  potency relative to ACV: 5-10 times
[5]
  VR: 3.8
[5]; Human alphaherpesvirus 2, read-out: Mic50
  EC50: 0.7 µg/mL (≈ 2.64 µM)
